{"source": "paper PMC4102417", "about": "(PLoS Neglected Tropical Diseases, 2014)", "key": {"3T3 fibroblast cells": {"system": "3T3 fibroblast cells", "assay": "cells", "type": "cell-based, murine", "conditions": "Mus musculus, NIH3T3, 72 h, read-out: Mammalian (3T3) cell % growth at 10 uM"}, "[1]": {"system": "T. cruzi (Tulahuen strain)", "assay": "microbe, parasite or virus in culture", "type": "cell-based, Trypanosoma cruzi", "conditions": "Trypanosoma cruzi, TULAHUEN, Fibroblast; for activity at 10 µM: 120 h, Table S2, read-out: T. cruzi % growth @ 10 uM (Amastigotes); for EC50: read-out: T. cruzi EC50", "protocol": "Compounds were tested against T. cruzi (Tulahuen strain) stably expressing the beta-galactosidase gene as previously described. […] Fibroblasts were plated at a density of 2×10^3 per well in 96 well tissue culture plates. After 24 hours of incubation, 1×10^4 trypomastigotes/well were added to the fibroblasts and incubated for 4 hours before addition of the test compounds from the Spectrum Collection (10 µM final concentration). Cultures were incubated at 37°C for 5 days, then developed with chlorophenol red β-D-galactopyranoside as previously described. The percent inhibition is reported with standard deviation of the mean. […] Z-prime values were calculated for each 96-well plate based on positive (4 wells) and negative controls (4 wells)."}}, "note": "Structures can show the parent of a compound that is named as a salt. Where two headings read alike, the source gives them in different places.", "data": [{"smiles": "CC1C=CC=CC=CC=CC=CC=CC=CC(OC2OC(C)C(O)C(N)C2O)CC2OC(O)(CC(O)CC(O)C(O)CCC(O)CC(O)CC(=O)OC(C)C(C)C1O)CC(O)C2C(=O)O", "note": "(stereo not drawn) [AMPHOTERICIN B, 33-[(4-amino-3,5-dihydroxy-6-methyloxan-2-yl)oxy]-1,3,5,6,9,11,17,37-octahydroxy-15,16,18-trimethyl-13-oxo-14,39-dioxabicyclo[33.3.1]nonatriaconta-19,21,23,25,27,29,31-heptaene-36-carboxylic acid]", "values": [{"measurement": "activity at 10 µM", "setting": "3T3 fibroblast cells; 10 uM, Table S2", "result": 89.7, "unit": "%"}, {"measurement": "activity at 10 µM", "setting": "[1]", "result": 20.6, "unit": "%"}, {"measurement": "EC50", "setting": "[1]; Table S2, amastigotes", "result": 0.04, "unit": "nM"}, {"measurement": "EC50", "setting": "[1]", "result": 40, "unit": "nM"}]}, {"smiles": "CC12C=CC(=O)C=C1CCC1C2CCC2(C)C(=O)CCC12", "note": "(stereo not drawn) [ANDROSTA-1,4-DIEN-3,17-DIONE, 2,15-dimethyltetracyclo[8.7.0.0^{2,7}.0^{11,15}]heptadeca-3,6-diene-5,14-dione]", "values": [{"measurement": "activity at 10 µM", "setting": "3T3 fibroblast cells; 10 uM, Table S2", "result": 72.1, "unit": "%"}, {"measurement": "activity at 10 µM", "setting": "[1]", "result": 25.1, "unit": "%"}]}, {"smiles": "O=c1cc(-c2ccc(O)cc2)oc2cc(O)cc(O)c12", "note": "[APIGENIN, 5,7-dihydroxy-2-(4-hydroxyphenyl)-4H-chromen-4-one]", "values": [{"measurement": "activity at 10 µM", "setting": "3T3 fibroblast cells; 10 uM, Table S2", "result": 73.6, "unit": "%"}, {"measurement": "activity at 10 µM", "setting": "[1]", "result": 17.7, "unit": "%"}]}, {"smiles": "CC1CCC2C(C)C(=O)OC3OC4(C)CCC1C32OO4", "note": "(stereo not drawn) [ARTEMISININ, 1,5,9-trimethyl-11,14,15,16-tetraoxatetracyclo[10.3.1.0^{4,13}.0^{8,13}]hexadecan-10-one]", "values": [{"measurement": "activity at 10 µM", "setting": "3T3 fibroblast cells; 10 uM, Table S2", "result": 77.6, "unit": "%"}, {"measurement": "activity at 10 µM", "setting": "[1]", "result": 17.5, "unit": "%"}, {"measurement": "EC50", "setting": "[1]; Table S2, amastigotes", "result": 5020, "unit": "nM"}]}, {"smiles": "COc1ccc(CCN2CCC(Nc3nc4ccccc4n3Cc3ccc(F)cc3)CC2)cc1", "note": "[ASTEMIZOLE, 1-[(4-fluorophenyl)methyl]-N-{1-[2-(4-methoxyphenyl)ethyl]piperidin-4-yl}-1H-1,3-benzodiazol-2-amine]", "values": [{"measurement": "activity at 10 µM", "setting": "3T3 fibroblast cells; 10 uM, Table S2", "result": 100, "unit": "%"}, {"measurement": "activity at 10 µM", "setting": "[1]", "result": 11.6, "unit": "%"}]}, {"smiles": "CN1CCCC(n2nc(Cc3ccc(Cl)cc3)c3ccccc3c2=O)CC1", "note": "(stereo not drawn) [AZELASTINE HYDROCHLORIDE, 4-[(4-chlorophenyl)methyl]-2-(1-methylazepan-4-yl)-1,2-dihydrophthalazin-1-one hydrochloride]", "values": [{"measurement": "activity at 10 µM", "setting": "3T3 fibroblast cells; 10 uM, Table S2", "result": 95.1, "unit": "%"}, {"measurement": "activity at 10 µM", "setting": "[1]", "result": 1.5, "unit": "%"}, {"measurement": "EC50", "setting": "[1]", "result": 2200, "unit": "nM"}]}, {"smiles": "CCOC(=O)C(CCc1ccccc1)NC1CCc2ccccc2N(CC(=O)O)C1=O", "note": "(stereo not drawn) [BENAZEPRIL HYDROCHLORIDE, 2-{3-[(1-ethoxy-1-oxo-4-phenylbutan-2-yl)amino]-2-oxo-2,3,4,5-tetrahydro-1H-1-benzazepin-1-yl}acetic acid hydrochloride]", "values": [{"measurement": "activity at 10 µM", "setting": "3T3 fibroblast cells; 10 uM, Table S2", "result": 66.8, "unit": "%"}, {"measurement": "activity at 10 µM", "setting": "[1]", "result": 1, "unit": "%"}]}, {"smiles": "CC(Cc1cccc(C(F)(F)F)c1)NCCOC(=O)c1ccccc1", "note": "(stereo not drawn) [BENFLUOREX, 2-({1-[3-(trifluoromethyl)phenyl]propan-2-yl}amino)ethyl benzoate]", "values": [{"measurement": "activity at 10 µM", "setting": "3T3 fibroblast cells; 10 uM, Table S2", "result": 96.6, "unit": "%"}, {"measurement": "activity at 10 µM", "setting": "[1]", "result": 21.6, "unit": "%"}]}, {"smiles": "CC(C)COCC(CN(Cc1ccccc1)c1ccccc1)N1CCCC1", "note": "(stereo not drawn) [BEPRIDIL, N-benzyl-N-[3-(2-methylpropoxy)-2-(pyrrolidin-1-yl)propyl]aniline hydrochloride]", "values": [{"measurement": "activity at 10 µM", "setting": "3T3 fibroblast cells; 10 uM, Table S2", "result": 89.6, "unit": "%"}, {"measurement": "activity at 10 µM", "setting": "[1]", "result": 24.4, "unit": "%"}]}, {"smiles": "COc1ccc2cc3[n+](cc2c1OC)CCc1cc2c(cc1-3)OCO2", "note": "[BERBERINE, 16,17-dimethoxy-5,7-dioxa-13$l^5-azapentacyclo[11.8.0.0^{2,10}.0^{4,8}.0^{15,20}]henicosa-1(21),2,4(8),9,13,15,17,19-octaen-13-ylium]", "values": [{"measurement": "activity at 10 µM", "setting": "3T3 fibroblast cells; 10 uM, Table S2", "result": 75.8, "unit": "%"}, {"measurement": "activity at 10 µM", "setting": "[1]", "result": 4.1, "unit": "%"}]}, {"smiles": "C=C(C)C1CCC2(CO)CCC3(C)C(CCC4C5(C)CCC(O)C(C)(C)C5CCC43C)C12", "note": "(stereo not drawn) [BETULIN, 5-(hydroxymethyl)-1,2,14,18,18-pentamethyl-8-(prop-1-en-2-yl)pentacyclo[11.8.0.0^{2,10}.0^{5,9}.0^{14,19}]henicosan-17-ol]", "values": [{"measurement": "activity at 10 µM", "setting": "3T3 fibroblast cells; 10 uM, Table S2", "result": 100, "unit": "%"}, {"measurement": "activity at 10 µM", "setting": "[1]", "result": 9.7, "unit": "%"}]}, {"smiles": "c1ccc(-c2ccc(C(c3ccccc3)n3ccnc3)cc2)cc1", "note": "(stereo not drawn) [BIFONAZOLE, 1-[phenyl(4-phenylphenyl)methyl]-1H-imidazole]", "values": [{"measurement": "activity at 10 µM", "setting": "3T3 fibroblast cells; 10 uM, Table S2", "result": 93.6, "unit": "%"}, {"measurement": "activity at 10 µM", "setting": "[1]", "result": 0.7, "unit": "%"}]}, {"smiles": "O=C(O)CC[N+](=O)[O-]", "note": "[BOVINOCIDIN, 3-nitropropanoic acid]", "values": [{"measurement": "activity at 10 µM", "setting": "3T3 fibroblast cells", "result": 88.6, "unit": "%"}, {"measurement": "activity at 10 µM", "setting": "[1]", "result": 14.1, "unit": "%"}]}]}
